The values that follow come from patent publication EP3050886A1, “Fluorescent dyes and dye precursors” (Bürkert Werke GmbH, priority 2015, dated 2016).

Assay [1] concerns E. coli (EC18). Kind of assay: Immunofluorescence and viability staining of E. coli. Conditions: 15 µM, 30 min at 37 °C, PBS containing 0.6 % glutaraldehyde. The class given is cell-based, Escherichia coli. How it is done: Environmental E. Coli (EC18) were cultivated and re-suspended in PBS as described above. A dead bacterial suspension was also prepared as previously described. Dead or viable E. coli (EC18) (100 µl of suspension at 1.10^9 bacteria/ml) were incubated with rabbit anti-EC18 polyclonal antibodies (anti-EC18 pAb) (dilution 1/20) for 1 h at room temperature. This anti-EC 18 pAb was obtained from immunized rabbit with inactivated EC18 (Eurogentec). Bacteria were washed in PBS by centrifugation at 10000 rpm for 3 min at room temperature. Then, they were resuspended in 200 µl of PBS solution containing 0.6 % of glutaraldehyde with 15 µM of 5-POGDA and incubated for 30 min at 37 °C in the absence of light. Following several washes with PBS as described above, dead or viable E. coli (EC18) were re-suspended in 200 µl of PBS and incubated for 1 h at room temperature in the absence of light with AlexaFluor 568 labeled anti-rabbit immunoglobulin (dilution 1/1000) (Molecularprobes, A11036). Bacteria were washed twice and re-suspended in 100 µl of PBS. They were imaged with a Leica DM5500 microscope equipped with FITC and Cy3 filters. Images were collected with a 100x objective. The same experiment was repeated three times (n = 3).

Assay [2] deals with E. coli (EC18). Kind of assay: Immunocapture of E. coli on beads and viability staining. The class given is cell-based, Escherichia coli. Conditions: 10 µM, 30 min at 37 °C, Trypan Blue as contrast agent. An excerpt: In a further test, antibodies anti-EC18 pAB and pro-fluorophores (5-POGDA, 5-POGAM) were used to immobilize E. coli (EC18) on beads and to reveal the immobilized bacteria respectively. Immunocapture of E. coli on beads was done in order to concentrate the fluorescent signal in order to improve the detection of the viable cells. In these experiments, Protein G Sepharose beads coated with goat-anti-rabbit immunoglobulins were used.
Environmental E. coli (E18) were cultivated and re-suspended in PBS as previously described. E. coli (EC18) (100 µl of suspension at 1*10^9 bacteria/ml) were incubated with rabbit anti-EC18 polyclonal antibodies (anti-EC18 pAb) or pre-immune control rabbit serum without anti-EC18 antibodies (PI-pAb) (dilution 1/20) for 1 h at room temperature. This control rabbit serum (PI-pAb) was obtained from a non-immunized animal (Eurogentec). It was used as a negative control. Bacteria were washed three times in PBS by centrifugation at 10000 rpm for 3 min at room temperature.
Proteine G Sepharose 4 Fast Flow beads were washed three times in Milli-Q water and three times in PBS by centrifugation at 2000 rpm for 2 min at 4 °C. Then 10 µl of sedimented beads were incubated with 20 µg of secondary antibody goat-anti-rabbit immunoglobulin (Thermo Scientific Pierce, 31210) in 500 µl of PBS with 0.001% of NP40 for 1h at room temperature with gentle mixing on a wheel. […]

“Also recorded” adds a separate entry of the source.

In the case of `CCCNC(=O)c1ccc2c(c1)C(=O)OC21c2cc(F)c(OC(C)=O)cc2Oc2cc(OC(C)=O)c(F)cc21` [Example 5-POGDA, 2',7'-difluoro-3-oxo-5-(propylcarbamoyl)-3H-spiro[isobenzofuran-1,9'-xanthene]-3',6'-diyl diacetate], in the assay on E. coli (EC18) [1], the “green fluorescence of viable and dead E. coli (EC18) coated with antibodies” value was “bright green fluorescence; also recorded: viable cells have a green fluorescence and dead cells have no green fluorescence”. Also, the “fluorescence intensity of viable E. coli captured on beads compared with 5-CFDA” value in the assay on E. coli (EC18) [2] is on record as “still higher than the fluorescence intensity of E. coli stained with 5-CFDA”. Regarding `CCCNC(=O)c1ccc2c(c1)C(=O)OC21c2cc(F)c(OCOC(C)=O)cc2Oc2cc(OCOC(C)=O)c(F)cc21` [Example 5-POGAM, 2',7'-difluoro-3-oxo-5-(propylcarbamoyl)-3H-spiroisobenzofuran-1,9'-xanthene-3',6'-diyl diacetoxymethyl ether], the “fluorescence intensity of viable E. coli captured on beads compared with 5-CFDA” value in the assay on E. coli (EC18) [2] is recorded as “still higher than the fluorescence intensity of E. coli stained with 5-CFDA”.
